According to patent publication US8865672B2, “Prevention of tissue ischemia and related methods” (The United States of America, as represented by the …, priority 2006, dated 2014):

Tests used:
[1] = system: VASP; experiment: Phospho-Ser239 VASP Western blotting in platelets; type: cell-based, human; conditions: 8Br-cGMP 100 μM, TSP1 2.2 nM
Procedure: Washed human platelets (resuspended in Tyrode's buffer to 3×10^8 platelets/mL to a final volume of 0.5 mL) were incubated at 37° C. for 30 minutes before treatment. TSP1 was added 15 minutes prior to treatment. Immediately following treatment, platelets were pelleted at 13,000×g at 4° C. for 15 seconds and resuspended in 1 mL of a lysis buffer containing 10 mM Tris-HCl (pH 7.5), 150 mM NaCl, 1 mM EDTA, 1 mM Na3VO4, 40 mM NaF, 1 μg/mL aprotinin, 1 μg/mL leupeptin, 1 mM phenylmethysulfonylfluoride and 1% […]. This suspension was placed at 4° C. with gentle agitation for 5 minutes before centrifugation at 13000×g for 5 minutes at 4° C. 5 μg lysates were electrophoresed on 4-12% Bis-Tris NuPAGE gels, transferred to Immobilon PVDF membranes and probed with a rabbit polyclonal antiserum against Serine 239-phosphorylated VASP (Santa Cruz Biotechnology, Santa Cruz, Calif.).

[2] = system: myosin light chain-2 (MLC) in HAVSMC; experiment: Myosin light chain phosphorylation in VSMC; type: cell-based, human; conditions: S1P 100 nM, DEA/NO 10 μM, TSP1 2.2 nM
Procedure: VSMC were plated at 90% confluence and grown in smooth muscle growth media containing 2% FBS overnight. To stimulate MLC phosphorylation, sphingosine-1-phosphate (SIP; Biomol International, Plymouth, Pa.) was added at a final concentration of 100 nM. The nitric oxide donor DEA/NO was added at a final concentration of 10 μM. For TSP1 pretreatment, cells were incubated with 2.2 nM TSP1 before addition of SIP or DEA/NO. Cells were subsequently washed twice with PBS and lysed immediately in 1×SDS sample buffer containing 10 μg/mL leupeptin, 10 μg/mL aprotinin, 1 mM Na3VO4, and 40 mM NaF. Lysates prepared in the SDS sample buffer described above were electrophoresed in 4-12% BisTris NuPAGE gels and transferred to PVDF membranes prior to immunoblotting with rabbit polyclonal antibodies against myosin light chain-2 (MLC) and phospho-MLC2 (T18/S19, Cell Signaling Technology, Danvers, Mass.).

[3] = system: murine ASMC (WT, CD36 null, CD47 null); experiment: Murine ASMC adhesion on type I collagen; type: cell-based, mouse; conditions: CD47 null MASMC
Procedure: Murine ASMC were obtained from aortic segments harvested sterilely from C57B1/6 CD47 null or CD36 null mice as described (Ray et al., Methods Cell Sci 23:185-188, 2001) and cultured in SM-GM (Cambrex)+20% FCS. In the case of CD36 null cells, culture flasks were pre-coated with 1% gelatin prior to cell plating. Wild type C57B1/6 ASMC cultures were prepared as previously described (Isenberg et al., Matrix Biol 24:110-123, 2005). Cell culture purity was determined by immunohistochemistry staining for α-smooth muscle actin. Cells were used within passage 1 to 4 to minimize overgrowth of other cell types.
Cell adhesion was carried out in 96-well culture plates. After pre-coating wells with type I collagen (3 μg/ml in DPBS) harvested cells were plated at a density of 1×10^4 cells/well in medium plus 0.1% BSA and treatment agents and incubated in 5% CO2 for 1 h. Wells were washed with PBS and cells fixed with 1% glutaraldehyde for 10 min., washed and stained with 1% crystal violet for 20 min. Excess stain was rinsed away, adherent cells treated with 10% acetic acid, and plates read at 570 nm.

[4] = system: human platelets; experiment: Human platelet adhesion assay; type: cell-based; conditions: for stimulation of adhesion by TSP1: fibrinogen, in the presence of NO
Procedure: Bacteriological Petri dishes (35×10 mm, Becton Dickinson Labware) were pre-coated with collagen (3 μg/ml) or fibrinogen (15 μg/mL) overnight. Following aspiration of non-adherent matrix, dishes were blocked with 1% BSA. Fresh platelets were washed and suspended in Tyrode's buffer and allowed to adhere for 30 minutes. Plates were washed with PBS, fixed with 0.5% glutaraldehyde and stained with 0.02% toluidine blue. Adherent platelets were counted microscopically. In some experiments platelets were pre-incubated with the Rap1 geranylgeranyltransferase inhibitor GGTI-298 (10 μM) for 30 minutes prior to initiating adhesion.

[5] = system: white hairless Yucatan miniature pig VSMC; experiment: Porcine VSMC adhesion assay; type: cell-based; conditions: TSP1 0.022-2.2 nM
Procedure: White hairless Yucatan miniature pig VSMC were plated at 10,000 cells/well onto 96-well plates (Maxisorb, Nunc) precoated with type I collagen (3 μg/ml). Cells were incubated for 1 h in basal medium (lacking additives and serum) with 0.1% BSA and the indicated concentrations of TSP1 and DEA/NO. Plates were then washed with PBS, fixed with glutaraldehyde, stained with crystal violet, and washed. Absorbed stain was solubilized with acetic acid from fixed cells and the resulting color signal determined on a MR580Microelisa Auto Reader, (Dynatech, Alexandria, Va.) at 450 nm wavelength. In other experiments cell were treated with a CD47 or mismatch control morpholino as described for 48 h prior to harvesting.

[6] = system: HAVSMC; experiment: Actin cytoskeleton staining (F-actin) in HAVSMC; type: cell-based, human
Procedure: VSMC were grown on glass well slides (Lab-Tek, Nunc) under standard growth conditions. Cells were incubated at 37° C. for 1 hour in serum and additive deficient growth medium and the indicated treatment agents, after which the media was removed and the cells were fixed in 4% paraformaldehyde in PBS (pH 7.4, Fisher Scientific) for 15 minutes at room temperature. After washing with DPBS, cells were permeabilized for 5 minutes in 0.1% Triton X-100 in PBS and then blocked in M199E/2% BSA for 30 min at room temperature. Cells were stained for F-actin with 1 unit/200 μl medium/1% BSA of Oregon Green 488 phalloidin (Molecular Probes). Slides were imaged using an Olympus IX70 microscope and photographed at constant exposure and gain. In other experiments VSMC were plated on 24-well culture plates (Nunc, Denmark) in smooth muscle growth medium (50,000 cells/well) and weaned from serum and additives over 24 hours. Cell treatment was performed with the indicated agents in plain medium with 0.1% BSA for 5 minutes. Wells were processed as described above. Following staining with phalloidin cells were incubated in methanol for 30 minutes, samples aliquoted to 96-well black plates and fluorescence read at 520 nm (excitation 495 nm). Data was normalized to total protein. Results represent the mean±SD of at least three separate experiments.

TSP1: thrombospondin-1 prepared from human platelets
VASP phosphorylation at Ser239 [1]: inhibited | MLC dephosphorylation induced by NO [2]: partially restored MLC phosphorylation | NO-stimulated adhesion ([3]; 22 nM): only moderately inhibited | NO-stimulated adhesion ([3]; concentrations up to 2.2 nM): had no effect | basal adhesion of platelets on type I collagen and fibrinogen ([4]; TSP1 2.2 nM): moderately increased basal adhesion | decrease in platelet adhesion in response to exogenous NO ([4]; fibrinogen or collagen, DEA/NO 10 μM): lost | stimulation of adhesion by TSP1 [4]: 55±9% | stimulation of adhesion by TSP1 ([4]; following Rap1 blockade with GGTI-298): 25±8% | NO-stimulated adhesion to type I collagen [5]: inhibited | NO-induced actin disassembly ([6]; DEA/NO 10 μM): completely prevented actin disassembly by NO | disassembly of S1P-induced F actin by NO ([6]; S1P 100 nM, DEA/NO 10 μM): attenuated | F-actin levels ([6]; agent alone (TSP1 2.2 nM, S1P 100 nM)): slightly increased F-actin levels
